The record followed here is US20140088114A1, “FUSED BICYCLIC KINASE INHIBITORS” (OSI Pharmaceuticals ,LLC, priority 2011, published 2014).

By IC50 is commonly meant the concentration needed to halve the response being measured.

The target in this assay is T1, c-MET (Homo sapiens, UniProt P08581).
T1 construct: endogenous in cells; host or cells: MKN45
T1 sequence (P08581 25-1390): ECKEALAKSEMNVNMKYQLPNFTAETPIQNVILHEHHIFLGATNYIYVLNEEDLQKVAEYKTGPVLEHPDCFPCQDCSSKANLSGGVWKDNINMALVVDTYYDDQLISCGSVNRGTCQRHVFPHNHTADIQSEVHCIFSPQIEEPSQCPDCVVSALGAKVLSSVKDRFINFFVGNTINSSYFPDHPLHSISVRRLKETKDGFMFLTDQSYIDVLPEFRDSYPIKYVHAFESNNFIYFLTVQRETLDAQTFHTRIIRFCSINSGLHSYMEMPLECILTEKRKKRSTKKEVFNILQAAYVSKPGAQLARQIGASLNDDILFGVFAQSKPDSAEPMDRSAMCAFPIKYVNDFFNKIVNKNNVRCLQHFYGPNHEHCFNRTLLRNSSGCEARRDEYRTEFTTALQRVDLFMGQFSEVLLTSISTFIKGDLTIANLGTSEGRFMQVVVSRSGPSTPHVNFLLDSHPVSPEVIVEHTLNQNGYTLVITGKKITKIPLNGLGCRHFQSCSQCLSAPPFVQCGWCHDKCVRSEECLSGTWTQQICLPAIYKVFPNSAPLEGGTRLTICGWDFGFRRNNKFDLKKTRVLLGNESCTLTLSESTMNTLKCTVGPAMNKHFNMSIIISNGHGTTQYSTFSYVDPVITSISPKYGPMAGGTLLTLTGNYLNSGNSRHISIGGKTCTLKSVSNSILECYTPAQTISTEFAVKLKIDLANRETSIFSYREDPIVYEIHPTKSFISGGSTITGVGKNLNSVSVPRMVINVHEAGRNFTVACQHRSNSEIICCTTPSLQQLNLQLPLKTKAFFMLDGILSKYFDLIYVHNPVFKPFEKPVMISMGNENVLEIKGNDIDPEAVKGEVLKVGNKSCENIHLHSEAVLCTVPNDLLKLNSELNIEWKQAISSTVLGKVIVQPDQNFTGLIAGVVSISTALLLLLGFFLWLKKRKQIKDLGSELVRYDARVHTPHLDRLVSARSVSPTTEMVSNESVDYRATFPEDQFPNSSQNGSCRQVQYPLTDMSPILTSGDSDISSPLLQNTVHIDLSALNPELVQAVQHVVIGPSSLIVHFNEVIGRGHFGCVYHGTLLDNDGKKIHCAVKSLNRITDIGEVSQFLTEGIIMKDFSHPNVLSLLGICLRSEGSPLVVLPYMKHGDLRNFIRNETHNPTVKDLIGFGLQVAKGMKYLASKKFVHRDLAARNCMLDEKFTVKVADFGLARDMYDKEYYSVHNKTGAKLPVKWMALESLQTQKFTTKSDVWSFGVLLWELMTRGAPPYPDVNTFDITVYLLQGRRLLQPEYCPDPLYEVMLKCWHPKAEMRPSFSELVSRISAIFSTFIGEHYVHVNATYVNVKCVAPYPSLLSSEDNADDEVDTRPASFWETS
Put plainly: MET cell mechanistic assay (MKN45), phosphorylated MET ELISA. The format is cell-based. Particulars: MKN45 cell line, 4 hours incubation, inhibition of phosphorylated MET, at least duplicate experiments; read-out: MET mech IC50. On the procedure:
The cellular activity of the compounds of the present invention against c-MET may be determined by the following procedure. MKN45 cells were plated in Falcon 3072 96-well plates in growth media (RPMI, 10% FBS, 1% L-glutamine) at a density of 5000 cells/well and incubated at 37° C., 5% CO2 overnight. The following day, one-tenth volume of a 10× concentration of compounds was added to the wells in a 6-point dilution series. The dilutions series was composed of an initial 1:5 dilution in DMSO, followed by a 1:10 dilution in growth media, for a final DMSO concentration on cells of 0.5%. Control wells were treated with 0.5% DMSO. The typical range of dilution was 10 μM to 3 nM. Once compound was added to the cells, plates were incubated for 4 hours at 37° C., 5% CO2. Plates were then washed in PBS, and lysed in triton-based lysis buffer. Lysates were transferred to a precoated capture plate made by Biosource (Cat #KHO0281). The phosphorylated MET levels were measured by incubating with a rabbit polyclonal antibody against phosphorylated MET ([pYpYpY1230/1234/1235]) followed by an anti-rabbit antibody conjugated to HRP. Signal was measured on a Wallac Victor plate reader at 450 nm. The DMSO signal of the control wells was defined as 100% and the percent of inhibition of phosphorylated MET was expressed as percent of control. IC50 values were determined from the percent of control data using a standard four-parameter model.
The IC50 values of exemplary compounds of the present invention determined in a MET cell mechanistic assay using the MKN45 cell line according to the procedures described herein in at least duplicate experiments are abbreviated as follows and are shown in Table 1: A, IC50≦0.03 μM; B, 0.03 μM<IC50≦0.1 μM; C, 0.1 μM<IC50≦1 μM; D, 1 μM<IC50≦3 μM; ND, not determined. The Example # of Table 1 corresponds to the compound Example number as illustrated in the Examples section. […]
On the technique in general: ELISA stands for enzyme-linked immunosorbent assay.
Turning to `O[C@H]1CC[C@H](n2cc(-c3cnc4[nH]cc([C@@H](CF)c5c(OC(F)F)ccc(F)c5Cl)c4c3)cn2)CC1` [Example 4, trans-4-[4-(3-{(1R)-1-[2-Chloro-6-(difluoromethoxy)-3-fluorophenyl]-2-fluoroethyl}-1H-pyrrolo[2,3-b]pyridin-5-yl)-1H-pyrazol-1-yl]cyclohexanol], the IC50 is 100 to 1000 nM.
The result for `O[C@H]1CC[C@H](n2cc(-c3cnc4[nH]cc([C@H](CF)c5c(OC(F)F)ccc(F)c5Cl)c4c3)cn2)CC1` [Example 5, trans-4-[4-(3-{(1S)-1-[2-Chloro-6-(difluoromethoxy)-3-fluorophenyl]-2-fluoroethyl}-1H-pyrrolo[2,3-b]pyridin-5-yl)-1H-pyrazol-1-yl]cyclohexanol] reads at most 30 nM; that for `COc1ccc(F)c(Cl)c1[C@@H](CF)c1c[nH]c2ncc(-c3cnn([C@H]4CC[C@H](O)CC4)c3)cc12` [Example 3, trans-4-(4-{3-[(1S)-1-(2-chloro-3-fluoro-6-methoxyphenyl)-2-fluoroethyl]-1H-pyrrolo[2,3-b]pyridin-5-yl}-1H-pyrazol-1-yl)cyclohexanol], at most 30 nM.
